Measured values: ChEMBL document CHEMBL1126971, “Structure-activity relationships from molecular similarity matrices” (J Med Chem, 1993)

Columns and labels:
[1] = target: T1, Sex hormone-binding globulin (Homo sapiens) (UniProt P04278)
T1 sequence (whole entry): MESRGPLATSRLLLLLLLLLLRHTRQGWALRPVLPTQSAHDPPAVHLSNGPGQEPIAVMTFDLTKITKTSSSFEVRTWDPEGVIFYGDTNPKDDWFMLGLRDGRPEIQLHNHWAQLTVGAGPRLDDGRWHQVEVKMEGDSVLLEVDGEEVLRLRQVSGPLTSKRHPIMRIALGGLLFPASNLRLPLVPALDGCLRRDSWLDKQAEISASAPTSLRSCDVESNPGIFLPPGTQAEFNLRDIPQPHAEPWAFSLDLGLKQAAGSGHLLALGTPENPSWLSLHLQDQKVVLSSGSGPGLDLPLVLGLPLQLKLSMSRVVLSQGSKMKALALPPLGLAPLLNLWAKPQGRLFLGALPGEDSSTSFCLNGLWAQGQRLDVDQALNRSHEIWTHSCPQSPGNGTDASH
Description: Binding affinity against testosterone-binding globulin (TeBG)

[2] = target: T2, Corticosteroid-binding globulin (Homo sapiens) (UniProt P08185)
T2 sequence (whole entry): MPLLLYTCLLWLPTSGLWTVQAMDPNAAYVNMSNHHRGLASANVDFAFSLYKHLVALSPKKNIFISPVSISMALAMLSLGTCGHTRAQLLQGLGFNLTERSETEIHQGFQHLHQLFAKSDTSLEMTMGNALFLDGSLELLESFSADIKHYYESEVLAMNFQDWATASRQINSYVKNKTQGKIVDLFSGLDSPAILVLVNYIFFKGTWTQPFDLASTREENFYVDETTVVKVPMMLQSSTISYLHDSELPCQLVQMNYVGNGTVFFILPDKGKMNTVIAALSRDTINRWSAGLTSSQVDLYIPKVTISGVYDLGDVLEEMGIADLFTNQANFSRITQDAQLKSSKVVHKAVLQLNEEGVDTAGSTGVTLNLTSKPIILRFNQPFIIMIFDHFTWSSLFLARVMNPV

[3] = target: T2, Corticosteroid-binding globulin (Homo sapiens); remark: listed apart in the source
[4] = target: T2, Corticosteroid-binding globulin (Homo sapiens); assay: Binding affinity against corticosteroid-binding globulin (CBG)

SMILES	Log 1/K [1]	Log 1/K [2]	Log 1/K [3]	Log 1/K [4]
CC(=O)[C@@]1(O)CC[C@H]2[C@@H]3CC=C4C[C@@H](O)CC[C@]4(C)[C@H]3CC[C@@]21C	6.36	5		
C[C@]12CC[C@H](O)C[C@@H]1CC[C@@H]1[C@@H]2CC[C@]2(C)[C@@H](O)CC[C@@H]12	9.11	5		
CC(=O)[C@@]1(C)CCC2C3CCC4=CC(=O)CC[C@]4(C)C3CC[C@@]21C (some centres not stated)		7.12		
CC(=O)[C@H]1CC[C@H]2[C@@H]3CC=C4C[C@@H](O)CC[C@]4(C)[C@H]3CC[C@]12C	7.15	5.22		
CC(=O)[C@H]1CC[C@H]2[C@@H]3CCC4=CC(=O)CC[C@@H]4[C@H]3CC[C@]12C		6.82		
C[C@]12CC[C@H]3[C@@H](CCC4=CC(=O)CC[C@@H]43)[C@@H]1CC[C@@H]2O		6.14		
CC(=O)[C@@]1(O)[C@H](O)C[C@H]2[C@@H]3CCC4=CC(=O)CC[C@]4(C)[C@H]3CC[C@@]21C		6.25		
CC(=O)[C@H]1CC[C@H]2[C@@H]3CCC4=CC(=O)CC[C@]4(C)[C@H]3CC[C@]12C	6.94		-7.38	
C[C@]12CC[C@@H]3c4ccc(O)cc4CC[C@H]3[C@@H]1C[C@@H](O)[C@H]2O	6.63	5		
C[C@]12C=CC(=O)C=C1CC[C@@H]1[C@@H]2[C@@H](O)C[C@@]2(C)[C@H]1CC[C@]2(O)C(=O)CO		7.51		
CC(=O)OCC(=O)[C@@]1(O)CCC2C3CCC4=CC(=O)CC[C@]4(C)C3C(O)C[C@@]21C (some centres not stated)		7.55		
C[C@]12CC[C@H](O)CC1=CC[C@@H]1[C@@H]2CC[C@]2(C)C(=O)CC[C@@H]12	7.82	5		
C[C@]12CCC(=O)C=C1CC[C@@H]1[C@@H]2CC[C@]2(C)C(=O)CC[C@@H]12	7.46	5.76		
C[C@]12CCC(=O)C=C1CC[C@@H]1[C@@H]2CC[C@@]2(C)[C@H]1CC[C@]2(O)C(=O)CO	7.2	7.88		
C[C@@H]1C[C@@]2(C)C(=CC1=O)CCC1C3CCC(C(=O)CO)[C@@]3(C)CC(O)[C@@]12F (some centres not stated)		5.8		
C[C@]12CC[C@H]3[C@@H](CCC4=CC(=O)CC[C@@]43C)[C@@H]1CC[C@@H]2C(=O)CO	7.38	7.65		
C[C@]12CCC(=O)C=C1CC[C@@H]1[C@@H]2[C@@H](O)C[C@@]2(C)[C@H]1CC[C@]2(O)C(=O)CO	6.2	7.88		
C[C@]12CCC(=O)C=C1CC[C@@H]1[C@@H]2C(=O)C[C@@]2(C)[C@H]1CC[C@]2(O)C(=O)CO	6.43	6.89		
C[C@]12CCC(=O)C=C1CCC1C3CC[C@H](C(=O)CO)[C@@]34C[C@H](OC4O)C12 (some centres not stated)	5.32			6.28
C[C@]12C[C@H](O)[C@H]3[C@@H](CCC4=CC(=O)CC[C@@]43C)[C@@H]1CC[C@@H]2C(=O)CO	6.34	7.88		
CC(=O)[C@@]1(O)CC[C@H]2[C@@H]3CCC4=CC(=O)CC[C@]4(C)[C@H]3CC[C@@]21C	7	7.74		
CC(=O)[C@H]1CC[C@H]2[C@@H]3CCC4=CC(=O)CC[C@]4(C)[C@H]3C(=O)C[C@]12C		6.78		
C[C@]12C[C@@H](O)[C@H]3[C@@H](CCC4=CC(=O)CC[C@@]43C)[C@@H]1CC[C@@H]2C(=O)CO		7.2		
